Several values for one entry are separate records, joined by “and”; a condition that tells them apart may be missing. Identical values can stand only once.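 Dose response: 5 concentrations. Exposure: 48 h. Format: 96-well plates. Endpoint: linear interpolation; highest concentration if not reached. GI50 marks 50% less growth. The concentration for full growth arrest is given as TGI.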 Where a SMILES comes first, the peptide text is derived from it. The star is where a group is joined. Fmoc = O=C(OCC1c2ccccc2-c2ccccc21)*; OBn = c1ccc(CO*)cc1; tBu = CC(C)(C)*
What was measured:
Experiment in all cases: NCI anticancer screen, dose series, 48 h
COLO 205 colon = tested on: COLO 205 colon
HCC-2998 colon = tested on: HCC-2998 colon
PC-3 prostate = tested on: PC-3 prostate
SF-295 CNS = tested on: SF-295 CNS
ACHN renal = tested on: ACHN renal
RPMI-8226 leukemia = tested on: RPMI-8226 leukemia
SNB-19 CNS = tested on: SNB-19 CNS
HL-60(TB) leukemia = tested on: HL-60(TB) leukemia
UACC-62 melanoma = tested on: UACC-62 melanoma
SK-MEL-2 melanoma = tested on: SK-MEL-2 melanoma

Structure (SMILES)	TGI (COLO 205 colon)	TGI (HCC-2998 colon)	TGI (PC-3 prostate)	TGI (SF-295 CNS)	TGI (ACHN renal)	TGI (RPMI-8226 leukemia)	TGI (SNB-19 CNS)	TGI (HL-60(TB) leukemia)	TGI (UACC-62 melanoma)	TGI (SK-MEL-2 melanoma)	GI50 (COLO 205 colon)	GI50 (RPMI-8226 leukemia)
O=[N+]([O-])C(/C=C(\Cl)[N+](=O)[O-])=C(Nc1ccccc1)Nc1ccccc1	23.1 µM	37.2 µM	28.8 µM	31.6 µM	31.9 µM	6.35 µM	32.8 µM	14.9 µM	21.3 µM	35.8 µM		
CC[P+](c1ccccc1)(N(C)C)N(C)C	> 100 µM	> 100 µM	> 100 µM	> 100 µM	> 100 µM	> 100 µM	> 100 µM	> 100 µM	> 100 µM	> 100 µM		
C=C(CCC(=O)N(CCc1c[nH]c2ccccc12)C(=O)c1ccccc1CSCC)C(=O)OC	54.6 µM	> 95.4 µM	> 100 µM	> 100 µM	> 100 µM	> 100 µM	> 100 µM	> 100 µM	> 100 µM	> 100 µM		
N#Cc1cc2c(n(C3OC(CO)C(O)C(O)C3O)c1=S)CCC2 (centres undefined)	> 100 µM	> 100 µM	> 100 µM	> 100 µM	> 100 µM	> 100 µM	> 100 µM	> 100 µM	> 100 µM	> 100 µM		
NCC1OC(OC2C(N)CC(N)C(O)C2OC2OC(CO)C(O)C2O)C(N)C(O)C1O (centres undefined)	> 100 µM	> 100 µM	> 100 µM	> 100 µM	> 100 µM	> 100 µM	> 100 µM	> 100 µM	> 100 µM	> 100 µM	> 100 µM	48 µM and > 100 µM
CCOC(=O)c1c(-c2ccc(Cl)cc2)c(C#N)c(=S)n(C2OC(COC(C)=O)C(OC(C)=O)C(OC(C)=O)C2OC(C)=O)c1C (centres undefined)	> 100 µM	> 100 µM	> 100 µM	> 100 µM	> 100 µM	> 100 µM	> 100 µM	> 100 µM	> 100 µM	> 66 µM		36.1 µM
O=c1ccc(=O)c2c1c1[nH]c3ccccc3c1c1c(=O)c3ccccc3c(=O)c21	> 10 µM	> 10 µM	> 10 µM	> 10 µM	> 10 µM	> 10 µM	> 10 µM	9.85 µM	> 10 µM	> 10 µM		
COc1cc2ccc(C(C)NCC#N)cc2cc1OC (centres undefined)	> 100 µM	> 100 µM	> 100 µM	> 100 µM	> 100 µM	> 100 µM	> 100 µM	> 100 µM	> 100 µM	> 100 µM		
COc1ccc(Nc2nc(N)c(C(=O)c3ccco3)s2)cc1	> 100 µM	71.9 µM	> 100 µM	> 100 µM	> 100 µM	> 85.4 µM	> 100 µM	17.7 µM	> 100 µM	> 83.9 µM		
Cc1c(C)c2c(c(N)c1C#N)C(=O)N(NC(=S)Nc1ccccc1)C2=O	> 100 µM	> 100 µM	> 100 µM	> 100 µM	> 100 µM	> 100 µM	> 100 µM	> 100 µM	> 100 µM	> 100 µM		
CCOC(=O)C(NC(=O)c1ccccc1)(Nc1ccc(S(=O)(=O)Nc2cc(C)on2)cc1)C(F)(F)F (centres undefined)	> 100 µM	> 100 µM	> 100 µM	> 100 µM	> 100 µM	> 100 µM	> 100 µM	> 100 µM	> 100 µM	> 100 µM		
CCOc1ccc(Nc2nc(N)nc(N)c2N=O)cc1	> 100 µM	> 100 µM	> 100 µM	> 100 µM	> 100 µM	> 100 µM	> 100 µM	> 100 µM	> 100 µM	> 100 µM		
O=c1c2ccccc2n2nnc3ccc(NCCNCCO)c1c32	4.09 µM	3.74 µM	4.89 µM	9.82 µM	5.89 µM	13.7 µM	17.7 µM	5.24 µM	8.68 µM	10.5 µM		
COC1=C(OC)C(=O)C(Cc2c(-c3ccccc3)nc3sc(Cl)cn23)=C(C)C1=O	33.5 µM	46.6 µM	33.3 µM	34.3 µM	30.7 µM	34.9 µM	35.3 µM	24.7 µM	24.6 µM	36.5 µM		
COc1cc2c(cc1OC)C(C1CC1)ON(C)CC2 (centres undefined)	> 100 µM	> 100 µM	> 100 µM	> 100 µM	> 100 µM	> 100 µM	> 100 µM	> 100 µM	> 100 µM	> 100 µM		
Cc1cc(C)n(C(C)(C(=O)Cc2ccccc2)n2nc(C)cc2C)n1	> 100 µM	> 100 µM	> 100 µM	> 100 µM	> 100 µM	> 100 µM	> 100 µM	> 100 µM	> 100 µM	> 100 µM		

Structure (SMILES)	TGI (COLO 205 colon)	TGI (HCC-2998 colon)	TGI (PC-3 prostate)	TGI (SF-295 CNS)	TGI (ACHN renal)	TGI (RPMI-8226 leukemia)	TGI (SNB-19 CNS)	TGI (HL-60(TB) leukemia)	TGI (UACC-62 melanoma)	TGI (SK-MEL-2 melanoma)	GI50 (COLO 205 colon)	GI50 (RPMI-8226 leukemia)
COc1cc(/C=C2\C(=O)N(c3ccc(Cl)cc3)C(c3ccccc3)S2(=O)=O)cc(OC)c1OC (centres undefined)	> 32.8 µM	> 100 µM	> 100 µM	> 100 µM	> 100 µM	> 100 µM	> 100 µM	> 100 µM	> 63.6 µM	> 100 µM		
CC(C)(C)[C@H]1NC(=O)CN1C(=O)OCc1ccccc1	> 100 µM	> 100 µM	> 100 µM	> 100 µM	> 100 µM	> 100 µM	> 100 µM	> 100 µM	> 100 µM	> 100 µM		
CCOC(=O)CSc1nc(-c2ccc(Cl)cc2)c(C#N)c(=O)[nH]1	> 100 µM	> 100 µM	> 100 µM	> 100 µM	> 100 µM	> 100 µM	> 100 µM	71.9 µM	> 100 µM	> 100 µM		
Clc1ccc(C2=CC(c3ccccc3)N3C(=N[C@H]4CCCC[C@@H]43)N2)cc1 (some centres undefined)	4.23 µM	5.08 µM	19.5 µM	20.3 µM	17.8 µM	7.02 µM	17.6 µM	7.79 µM	18.6 µM	27.2 µM		
CN(C)c1ccc(/C=C2\N=C(c3ccccc3)N(c3nc4ccc(Sc5ccccc5)cc4[nH]3)C2=O)cc1	45.9 µM	33.5 µM	> 100 µM	72.2 µM	> 100 µM	71.4 µM	> 100 µM	33.3 µM	82.4 µM	60.3 µM		
CC(=O)CCN1CC2CN=NC2(C#N)C1 (centres undefined)	> 100 µM	> 100 µM	> 100 µM	> 100 µM	> 88.7 µM	> 100 µM	> 100 µM	> 62.6 µM	> 100 µM	> 100 µM		> 100 µM
C=C(C)C1CCC2(C)C1CCC1(C)C2CCC2C3(C)C4OC(OC4=O)C(C)(C)C3CCC21C (centres undefined)	> 100 µM	> 100 µM	> 100 µM	> 100 µM	> 100 µM	> 100 µM	> 100 µM	80.1 µM	> 100 µM	> 100 µM		
Fc1cccc(C2ON=C(c3ccccc3)N2C23CC4CC(CC(C4)C2)C3)c1 (centres undefined)	> 10 µM	> 10 µM	> 10 µM	> 10 µM	> 10 µM	> 10 µM	> 10 µM	> 10 µM	> 10 µM	> 10 µM		
CCOC(=O)CC1C(C(=O)OCC)=Cn2c([nH]c3cccc4cccc2c43)=C1C(=O)OCC (centres undefined)	> 100 µM	> 100 µM	> 100 µM	> 100 µM	> 100 µM	> 100 µM	> 100 µM	> 100 µM	> 100 µM	> 100 µM		
CN=C1C=C(/N=C2/C=C(N/C(=C\C#N)C(C)(C)O)OC2(C)C)OC1(C)C	> 100 µM	> 100 µM	> 100 µM	> 100 µM	> 100 µM	> 69.6 µM	> 100 µM	5.83 µM	> 85.8 µM	> 82.8 µM		
C[N+](C)([O-])C12CC3CC(CC(C3)C1)C2	70.9 µM	> 100 µM	> 100 µM	> 100 µM	> 100 µM	93.6 µM	> 100 µM	> 100 µM	47.4 µM	> 100 µM		
Clc1ccc(-c2nn3c(COc4ccc(OCc5nnc6sc(-c7ccc(Cl)cc7)nn56)c(Cl)c4)nnc3s2)cc1	> 100 µM	44.9 µM	> 100 µM	> 100 µM	> 100 µM	> 100 µM	31.7 µM	36 µM	> 100 µM	> 100 µM		
Cc1cc(Br)c(O)c(-c2cscn2)c1	51.8 µM	36.2 µM	27.7 µM	> 100 µM	36.6 µM	20.3 µM	31.2 µM	12.7 µM	28.2 µM	35.1 µM		
CC(OC(C)(C)C)C(NC(=O)OCC1c2ccccc2-c2ccccc21)C(=O)NC(Cc1ccccc1)C(=O)OCc1ccccc1 (centres undefined) (Fmoc-Thr(tBu)-Phe-OBn; configuration not given here)	> 100 µM	> 100 µM	> 100 µM	> 100 µM	> 100 µM	> 100 µM	> 100 µM	> 100 µM	> 100 µM	> 100 µM		
CC(C)(C)OC(=O)N1CCC2(CC1)C(=O)NCN2c1ccccc1	> 100 µM	> 100 µM	> 100 µM	> 100 µM	> 100 µM	> 100 µM	> 100 µM	> 100 µM	> 100 µM	> 100 µM		
